Data on 22 compounds can be found in patent US20090306059A1, “CYCLIC AMINE DERIVATIVE HAVING SUBSTITUTED ALKYL GROUP” (priority 2005, published 2009).

Structures can show the parent of a compound that is named as a salt.

For this experiment, the system named is platelet aggregation caused by ADP in platelet-rich plasma (PRP) after oral administration. As to the kind of experiment: Test Example 2: ex vivo platelet aggregation inhibitory effect. Format: in vivo, rat (male Sprague-Dawley). The note with it: 10 mg/kg orally, 4 hours before blood sampling, rat PRP, ADP final concentration 3 μM, maximum platelet aggregation ratio, read-out: Test Example 1 (% inhibition) 10 mg/kg. How it is done: Male Sprague-Dawley rats (8-week old, Japan SLC, Inc.), 3 to 4 animals per group, were used for the test. The platelet aggregation was measured with an automatic platelet aggregometer (MCM Hema Tracer 313M, MC Medical, Inc.) by a partially modified method of Bom et al., The Journal of Physiology, Vol. 168, Section 178 (1963). Test compounds suspended in 5% Arabian gum solution or 10% dimethylacetamide/64% polyethylene glycol 400/16% Tween 80 solution were orally administered in a dose ratio of 1 mL/kg 4 hours before blood sampling. Vehicle was orally administered 4 hours in a dose ratio of 1 mL/kg before the sampling of the blood for the control group. 6.3 ml of blood was sampled from the ventral aorta of a rat anesthetized with pentobarbital (40 mg/kg) using 3.8% (w/v) sodium citrate solution (0.7 ml) as an anticoagulant. The obtained blood containing citrate was centrifuged (230 g, 15 minutes, room temperature) to separate PRP. The blood after the separation of PRP was further centrifuged (2,000 g, 10 minutes, room temperature) to separate PPP. After the number of blood platelet in PRP was measured with a multi-item automatic blood corpuscle counter (KX-21N, Sysmex Corporation), PPP was added thereto to adjust the blood platelet to 5×10^8/ml. After PRP (240 μl) was pipetted into cuvettes, the cuvettes were set in the automatic platelet aggregometer. After preliminary warming (37° C.) for 1.5 minutes, 10 μl of ADP solution (final concentration 3 μM) was added to cause platelet aggregation. Platelet aggregation was measured for 5 minutes and the maximum platelet aggregation ratio was determined.
For the compound `CCOC(=O)CN1CCN(C/C=C2\CN(C(C(=O)C3CC3)c3ccccc3F)CCC2SC(C)=O)CC1=O` (stereo not shown) [Example 13, (E)-4-(Acetylsulfanyl)-1-[2-cyclopropyl-1-(2-fluorophenyl)-2-oxoethyl]-3-{2-[4-(ethoxycarbonylmethyl)-3-oxopiperazin-1-yl]ethylidene}piperidine], the inhibition at 10 mg/kg came to 63%.

For `CCOC(=O)CCN1CCN(C/C=C2\CN(C(C(=O)C3CC3)c3ccccc3F)CCC2SC(C)=O)CC1=O` (stereo not shown) [Example 17, (E)-4-(Acetylsulfanyl)-1-[2-cyclopropyl-1-(2-fluorophenyl)-2-oxoethyl]-3-(2-{4-[2-(ethoxycarbonyl)ethyl]-3-oxopiperazin-1-yl}ethylidene)piperidine], the inhibition at 10 mg/kg is 92%.

Consider `CCOC(=O)CCN1CCN(C/C=C2\CN(C(C(=O)C3CC3)c3ccccc3F)CCC2SC(C)=O)C(=O)C1` (stereo not shown) [Example 21, (E)-4-(Acetylsulfanyl)-1-[2-cyclopropyl-1-(2-fluorophenyl)-2-oxoethyl]-3-(2-{4-[2-(ethoxycarbonyl)ethyl]-2-oxopiperazin-1-yl}ethylidene)piperidine dihydrochloride], for which the inhibition at 10 mg/kg was found to be 90%.

With `CC(=O)SC1CCN(C(C(=O)C2CC2)c2ccccc2F)C/C1=C\CN1CCN(CCC(=O)O)CC1=O` (stereo not shown) [Example 24, (E)-4-(Acetylsulfanyl)-3-(2-{4-[2-(carboxyethyl)]-2-oxopiperazin-1-yl}ethylidene)-1-[2-cyclopropyl-1-(2-fluorophenyl)-2-oxoethyl]piperidine dihydrochloride], the inhibition at 10 mg/kg turned out to be 85%.

As to `COC(=O)[C@@H]1CCCN1C/C=C1\CN(C(C(=O)C2CC2)c2ccccc2F)CCC1SC(C)=O` (stereo partly drawn) [Example 25, (E)-4-(Acetylsulfanyl)-1-[2-cyclopropyl-1-(2-fluorophenyl)-2-oxoethyl]-3-{2-[(2S)-(methoxycarbonyl)pyrrolidin-1-yl]ethylidene}piperidine dihydrochloride], the inhibition at 10 mg/kg came to 92%.

`COC(=O)[C@@H]1CCCN1C/C=C1\CN(C(C(=O)C2CC2)c2ccccc2F)CCC1S` (stereo partly drawn) [Example 26, (E)-1-[2-Cyclopropyl-1-(2-fluorophenyl)-2-oxoethyl]-3-{2-[(2S)-(methoxycarbonyl)pyrrolidin-1-yl]ethylidene}-4-sulfanylpiperidine dihydrochloride]: the inhibition at 10 mg/kg turned out to be 92%.

With `CCOC(=O)C1CCN(C/C=C2\CN(C(C(=O)C3CC3)c3ccccc3F)CCC2SC(C)=O)CC1` (stereo not shown) [Example 29, (E)-4-(Acetylsulfanyl)-1-[2-cyclopropyl-1-(2-fluorophenyl)-2-oxoethyl]-3-{2-[4-(ethoxycarbonyl)piperidin-1-yl]ethylidene}piperidine dihydrochloride], the inhibition at 10 mg/kg is 89%.

As for `CCOC(=O)C1CCN(C/C=C2\CN(C(C(=O)C3CC3)c3ccccc3F)CCC2S)CC1` (stereo not shown) [Example 30, (E)-1-[2-Cyclopropyl-1-(2-fluorophenyl)-2-oxoethyl]-3-{2-[4-(ethoxycarbonyl)piperidin-1-yl]ethylidene}-4-sulfanylpiperidine dihydrochloride], the inhibition at 10 mg/kg is 93%.

Consider `O=C(O)C1CCN(C/C=C2\CN(C(C(=O)C3CC3)c3ccccc3F)CCC2S)CC1` (stereo not shown) [Example 31, (E)-3-{2-[4-(Carboxypiperidine)-1-yl]ethylidene}-1-[2-cyclopropyl-1-(2-fluorophenyl)-2-oxoethyl]-4-sulfanylpiperidine dihydrochloride], for which the inhibition at 10 mg/kg came to 82%.

With `CC(=O)SC1CCN(C(C(=O)C2CC2)c2ccccc2F)C/C1=C\CO` (stereo not shown) [Example 32, (E)-4-(Acetylsulfanyl)-1-[2-cyclopropyl-1-(2-fluorophenyl)-2-oxoethyl]-3-(2-hydroxyethylidene)piperidine], the inhibition at 10 mg/kg worked out at 86%.

As for `CCOC(=O)CN1CCC(/C=C2\CN(C(C(=O)C3CC3)c3ccccc3F)CCC2SC(C)=O)CC1` (stereo not shown) [Example 36, (E)-4-(Acetylsulfanyl)-1-[2-cyclopropyl-1-(2-fluorophenyl)-2-oxoethyl]-3-{[1-(ethoxycarbonylmethyl)piperidin-4-yl]methylidene}piperidine dihydrochloride], the inhibition at 10 mg/kg was 80%.

For the compound `CCOC(=O)CN1CCC(/C=C2\CN(C(C(=O)C3CC3)c3ccccc3F)CCC2S)CC1` (stereo not shown) [Example 38, (E)-1-[2-Cyclopropyl-1-(2-fluorophenyl)-2-oxoethyl]-3-{[1-(ethoxycarbonylmethyl)piperidin-4-yl]methylidene}-4-sulfanylpiperidine dihydrochloride], the inhibition at 10 mg/kg was found to be 66%.

Consider `C/C(Cn1cc(C(=O)O)cn1)=C1/CN(C(C(=O)C2CC2)c2ccccc2F)CCC1S` (stereo not shown) [Example 62, (E)-3-{[2-(4-Carboxy-1H-pyrazol-1-yl)-1-methyl]ethylidene}-1-[2-cyclopropyl-1-(2-fluorophenyl)-2-oxoethyl]-4-sulfanylpiperidine hydrochloride], for which the inhibition at 10 mg/kg was 94%.

`O=C(O)C/C=C1\CN(C(C(=O)C2CC2)c2ccccc2F)CCC1S` (stereo not shown) [Example 64, (E)-3-(2-Carboxyethylidene)-1-[2-cyclopropyl-1-(2-fluorophenyl)-2-oxoethyl]-4-sulfanylpiperidine hydrochloride]: the inhibition at 10 mg/kg was found to be 94%.

Turning to `CC(=O)SC1CCN(C(C(=O)C2CC2)c2ccccc2F)C/C1=C/CO` (stereo not shown) [Example 66, (Z)-4-(Acetylsulfanyl)-1-[2-cyclopropyl-1-(2-fluorophenyl)-2-oxoethyl]-3-(2-hydroxyethylidene)piperidine hydrochloride], the inhibition at 10 mg/kg was determined as 87%.

For `O=C(O)CCCN1CCN(C/C=C2\CN(C(C(=O)C3CC3)c3ccccc3F)CCC2S)C(=O)C1` (stereo not shown) [Example 72, (E)-3-(2-{4-[3-(Carboxypropyl)]-2-oxopiperazin-1-yl}ethylidene)-1-[2-cyclopropyl-1-(2-fluorophenyl)-2-oxoethyl]-4-sulfanylpiperidine dihydrochloride], the inhibition at 10 mg/kg came to 76%.

`COC(=O)[C@@H]1C[C@@H](O)CN1C/C=C1\CN(C(C(=O)C2CC2)c2ccccc2F)CCC1SC(C)=O` (stereo partly drawn) [Example 78, (E)-4-(Acetylsulfanyl)-1-[2-cyclopropyl-1-(2-fluorophenyl)-2-oxoethyl]-3-{2-[(2S,4R)-4-hydroxy-2-(methoxycarbonyl)pyrrolidin-1-yl]ethylidene}piperidine dihydrochloride]: the inhibition at 10 mg/kg came out at 75%.

As for `CCOC(=O)CN(C)C/C=C1\CN(C(C(=O)C2CC2)c2ccccc2F)CCC1SC(C)=O` (stereo not shown) [Example 81, (E)-4-(Acetylsulfanyl)-1-[2-cyclopropyl-1-(2-fluorophenyl)-2-oxoethyl]-3-{2-[N-(ethoxycarbonylmethyl)-N-methylamino]ethylidene}piperidine dihydrochloride], the inhibition at 10 mg/kg came to 83%.

As for `CCOC(=O)CN(C)C/C=C1\CN(C(C(=O)C2CC2)c2ccccc2F)CCC1S` (stereo not shown) [Example 82, (E)-1-[2-Cyclopropyl-1-(2-fluorophenyl)-2-oxoethyl]-3-{2-[N-(ethoxycarbonylmethyl)-N-methylamino]ethylidene}-4-sulfanylpiperidine dihydrochloride], the inhibition at 10 mg/kg worked out at 81%.

On to `CCOC(=O)CN(C)C/C=C1/CN(C(C(=O)C2CC2)c2ccccc2F)CCC1SC(C)=O` (stereo not shown) [Example 84, (Z)-4-(Acetylsulfanyl)-1-[2-cyclopropyl-1-(2-fluorophenyl)-2-oxoethyl]-3-{2-[N-(ethoxycarbonylmethyl)-N-methylamino]ethylidene}piperidine dihydrochloride], for which the inhibition at 10 mg/kg was 82%.

`CCOC(=O)CN(C)C/C=C1/CN(C(C(=O)C2CC2)c2ccccc2F)CCC1S` (stereo not shown) [Example 85, (Z)-1-[2-Cyclopropyl-1-(2-fluorophenyl)-2-oxoethyl]-3-{2-[N-(ethoxycarbonylmethyl)-N-methylamino]ethylidene}-4-sulfanylpiperidine dihydrochloride]: the inhibition at 10 mg/kg is 82%.

`CCOC(=O)CCCN(C)C/C=C1/CN(C(C(=O)C2CC2)c2ccccc2F)CCC1SC(C)=O` (stereo not shown) [Example 89, (Z)-4-(Acetylsulfanyl)-1-[2-cyclopropyl-1-(2-fluorophenyl)-2-oxoethyl]-3-(2-{N-[3-(ethoxycarbonyl)propyl]-N-methylamino}ethylidene)piperidine dihydrochloride]: the inhibition at 10 mg/kg was 83%.
